One assay deals with Large T antigen (Simian virus 40, UniProt P03070). The assay is classed as functional, Betapolyomavirus macacae.
The target of assay [1] is Induced myeloid leukemia cell differentiation protein Mcl-1 (Homo sapiens, UniProt Q07820). The assay is classed as functional.
Assay [2] deals with Glyceraldehyde-3-phosphate dehydrogenase (Homo sapiens, UniProt P04406).
In a further assay the target is T1, Leucine aminopeptidase (Plasmodium falciparum 3D7, UniProt Q8IL11).
T1 sequence (Q8IL11 whole entry): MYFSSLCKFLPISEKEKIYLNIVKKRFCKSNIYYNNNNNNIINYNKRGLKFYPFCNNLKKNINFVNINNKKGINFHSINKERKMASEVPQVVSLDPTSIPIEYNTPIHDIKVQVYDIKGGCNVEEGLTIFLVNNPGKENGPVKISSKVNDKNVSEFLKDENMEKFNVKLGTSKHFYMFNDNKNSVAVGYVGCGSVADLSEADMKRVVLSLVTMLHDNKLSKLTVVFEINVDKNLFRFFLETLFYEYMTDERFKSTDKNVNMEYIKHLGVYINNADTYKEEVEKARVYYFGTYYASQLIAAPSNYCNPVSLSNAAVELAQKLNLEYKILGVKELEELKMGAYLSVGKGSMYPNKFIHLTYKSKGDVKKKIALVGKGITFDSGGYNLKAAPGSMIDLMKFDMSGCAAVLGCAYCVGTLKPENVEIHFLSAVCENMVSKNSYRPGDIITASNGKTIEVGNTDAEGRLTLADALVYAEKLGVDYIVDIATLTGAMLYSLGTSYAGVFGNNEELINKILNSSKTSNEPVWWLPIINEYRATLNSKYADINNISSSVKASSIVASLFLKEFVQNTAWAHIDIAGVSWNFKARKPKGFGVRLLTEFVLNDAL
Kind of assay: P. falciparum M17LAP inhibitors, primary screen, biochemical, fluorogenic H-Leu-NHMec substrate, 1536-well (AID 1619). Format: functional.

The nature of assay [3]: growth suppression of beta-catenin-knockout colon cells, dose response, cell-based, HCT116, human colon tumor (AID 1045).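 Note: HCT116 colon tumor cells with beta catenin knocked out; cells exposed to compound for 60 hours.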 The assay is classed as functional.
Assay [4] concerns the target T2, Replicative DNA helicase DnaB (Mycobacterium tuberculosis, UniProt P9WMR3).
T2 sequence (P9WMR3 whole entry): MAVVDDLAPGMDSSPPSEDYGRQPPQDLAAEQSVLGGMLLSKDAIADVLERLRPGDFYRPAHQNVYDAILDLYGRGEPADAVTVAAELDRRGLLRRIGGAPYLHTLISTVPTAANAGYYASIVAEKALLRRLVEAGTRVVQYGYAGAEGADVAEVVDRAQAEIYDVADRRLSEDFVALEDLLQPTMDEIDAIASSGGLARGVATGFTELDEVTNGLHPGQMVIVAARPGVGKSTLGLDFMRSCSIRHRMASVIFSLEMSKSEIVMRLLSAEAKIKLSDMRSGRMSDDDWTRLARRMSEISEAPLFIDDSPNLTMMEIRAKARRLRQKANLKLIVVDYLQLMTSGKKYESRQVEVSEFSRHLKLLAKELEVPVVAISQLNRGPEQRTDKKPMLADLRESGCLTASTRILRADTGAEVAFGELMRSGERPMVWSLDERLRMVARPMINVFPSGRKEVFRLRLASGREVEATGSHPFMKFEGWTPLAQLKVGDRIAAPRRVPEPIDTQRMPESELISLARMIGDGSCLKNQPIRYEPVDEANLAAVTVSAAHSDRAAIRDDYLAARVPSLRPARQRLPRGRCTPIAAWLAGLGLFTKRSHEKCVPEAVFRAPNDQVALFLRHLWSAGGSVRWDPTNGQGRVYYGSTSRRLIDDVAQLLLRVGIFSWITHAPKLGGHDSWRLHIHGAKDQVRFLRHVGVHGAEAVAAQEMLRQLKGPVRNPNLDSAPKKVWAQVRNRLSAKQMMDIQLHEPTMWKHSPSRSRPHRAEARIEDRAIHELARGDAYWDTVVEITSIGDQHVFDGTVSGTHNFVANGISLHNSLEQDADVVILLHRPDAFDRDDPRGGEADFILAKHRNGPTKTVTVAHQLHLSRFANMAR
Kind of assay: DnaB intein splicing inhibitors, dose response, biochemical, cell-free fluorescence (AID 449749). The assay is classed as functional.

The target in a further assay is T3, Protein RecA (Mycobacterium tuberculosis, UniProt P9WHJ3).
T3 sequence (P9WHJ3 whole entry): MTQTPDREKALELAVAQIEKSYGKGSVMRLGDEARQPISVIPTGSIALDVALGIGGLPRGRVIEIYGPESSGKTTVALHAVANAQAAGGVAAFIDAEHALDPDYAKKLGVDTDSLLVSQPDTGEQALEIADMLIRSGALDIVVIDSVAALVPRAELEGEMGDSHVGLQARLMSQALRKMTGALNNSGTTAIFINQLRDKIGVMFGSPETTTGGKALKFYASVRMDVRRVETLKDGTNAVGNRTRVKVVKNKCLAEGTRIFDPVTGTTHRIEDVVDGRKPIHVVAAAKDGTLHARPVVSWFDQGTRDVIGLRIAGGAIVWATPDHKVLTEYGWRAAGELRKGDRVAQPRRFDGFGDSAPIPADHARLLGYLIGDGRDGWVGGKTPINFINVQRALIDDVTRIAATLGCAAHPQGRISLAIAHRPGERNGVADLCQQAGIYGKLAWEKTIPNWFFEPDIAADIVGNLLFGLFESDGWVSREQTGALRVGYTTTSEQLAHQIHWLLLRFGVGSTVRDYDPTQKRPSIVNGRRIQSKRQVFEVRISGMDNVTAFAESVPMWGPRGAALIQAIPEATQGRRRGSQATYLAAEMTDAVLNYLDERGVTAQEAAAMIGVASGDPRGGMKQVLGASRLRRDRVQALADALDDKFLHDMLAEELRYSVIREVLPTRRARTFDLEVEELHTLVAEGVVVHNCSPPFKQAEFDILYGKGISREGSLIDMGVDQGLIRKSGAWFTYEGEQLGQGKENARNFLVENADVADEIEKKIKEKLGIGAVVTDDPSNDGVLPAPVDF
Kind of assay: Fluorescence Cell-Free Homogeneous Dose Retest to Identify Inhibitors of RecA-Intein Splicing Activity. [Related pubchem assays (depositor defined):AID2097, AID2223, AID489010, AID492950]. The assay is classed as functional.

The target of assay [5] is T4, Polyadenylate-binding protein 1 (Homo sapiens, UniProt P11940). Kind of assay: PABP1 MLLE–PAM2 binding inhibitor potency, dose response, biochemical, fluorescence polarization, FITC-PAM2 peptide (AID 602259). Format: functional. The note with it: read-out: IC50_Mean. (Polarisation of emitted light reports the rotation of a fluorescent probe.)
The target of assay [6] is T4, Polyadenylate-binding protein 1. Kind of assay: PABP1 MLLE–PAM2 interaction inhibitors, dose response, miRNA deadenylation inhibitor project, biochemical, fluorescence polarization, Cy5-PAM2 peptide, secondary (AID 602260). Format: functional. The note with it: read-out: IC50_Mean.

The source made the active and inactive calls.

The EC50 is the concentration giving half of the maximal effect. The term AC50 denotes the concentration at which the activity in the assay is half-maximal.

Glyceraldehyde-3-phosphate dehydrogenase, sequence (P04406 whole entry): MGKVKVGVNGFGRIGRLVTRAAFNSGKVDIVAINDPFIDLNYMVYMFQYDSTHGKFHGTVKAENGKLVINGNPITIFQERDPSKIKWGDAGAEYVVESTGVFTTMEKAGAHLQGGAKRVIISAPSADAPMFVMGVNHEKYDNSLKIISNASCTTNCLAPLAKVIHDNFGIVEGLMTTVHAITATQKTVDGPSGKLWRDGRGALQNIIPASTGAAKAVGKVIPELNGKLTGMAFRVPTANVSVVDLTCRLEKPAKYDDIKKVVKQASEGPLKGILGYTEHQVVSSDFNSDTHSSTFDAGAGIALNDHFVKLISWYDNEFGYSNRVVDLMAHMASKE
Large T antigen, sequence (P03070 whole entry): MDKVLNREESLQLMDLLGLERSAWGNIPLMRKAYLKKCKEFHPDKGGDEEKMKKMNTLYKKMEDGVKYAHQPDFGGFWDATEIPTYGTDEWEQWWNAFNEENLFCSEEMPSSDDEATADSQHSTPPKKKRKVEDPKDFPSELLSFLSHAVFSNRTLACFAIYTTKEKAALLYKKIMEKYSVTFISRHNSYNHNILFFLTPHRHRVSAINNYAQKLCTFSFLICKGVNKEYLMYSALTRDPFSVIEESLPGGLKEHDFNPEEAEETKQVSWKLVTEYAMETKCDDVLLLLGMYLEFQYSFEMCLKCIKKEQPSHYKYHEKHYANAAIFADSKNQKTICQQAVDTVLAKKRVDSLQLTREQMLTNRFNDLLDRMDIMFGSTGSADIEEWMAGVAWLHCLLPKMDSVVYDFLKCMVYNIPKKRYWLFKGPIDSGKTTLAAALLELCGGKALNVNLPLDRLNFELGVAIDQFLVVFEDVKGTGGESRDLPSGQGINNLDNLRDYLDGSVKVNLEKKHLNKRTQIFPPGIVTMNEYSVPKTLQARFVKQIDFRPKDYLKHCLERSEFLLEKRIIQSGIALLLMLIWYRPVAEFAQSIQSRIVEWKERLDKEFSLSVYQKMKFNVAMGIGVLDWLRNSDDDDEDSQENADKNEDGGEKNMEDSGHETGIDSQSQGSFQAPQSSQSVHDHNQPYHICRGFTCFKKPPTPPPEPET
T4 sequence (P11940 whole entry): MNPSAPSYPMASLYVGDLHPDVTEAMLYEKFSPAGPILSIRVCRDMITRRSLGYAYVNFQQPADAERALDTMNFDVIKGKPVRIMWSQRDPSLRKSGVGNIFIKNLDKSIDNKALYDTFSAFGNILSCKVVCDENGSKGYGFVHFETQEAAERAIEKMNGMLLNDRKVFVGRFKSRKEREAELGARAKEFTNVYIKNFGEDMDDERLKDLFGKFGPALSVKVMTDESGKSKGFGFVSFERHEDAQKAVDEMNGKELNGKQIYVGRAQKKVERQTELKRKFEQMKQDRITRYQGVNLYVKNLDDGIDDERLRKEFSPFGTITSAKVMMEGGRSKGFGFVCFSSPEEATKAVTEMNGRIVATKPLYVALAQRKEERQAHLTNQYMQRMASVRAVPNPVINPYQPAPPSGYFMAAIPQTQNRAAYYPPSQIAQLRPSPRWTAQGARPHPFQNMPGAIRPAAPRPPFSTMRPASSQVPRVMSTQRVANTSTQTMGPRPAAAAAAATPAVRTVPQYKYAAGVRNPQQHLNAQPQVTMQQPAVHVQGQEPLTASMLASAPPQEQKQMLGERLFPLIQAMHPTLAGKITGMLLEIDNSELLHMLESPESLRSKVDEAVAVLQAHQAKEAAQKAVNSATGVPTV
Induced myeloid leukemia cell differentiation protein Mcl-1, sequence (Q07820 whole entry): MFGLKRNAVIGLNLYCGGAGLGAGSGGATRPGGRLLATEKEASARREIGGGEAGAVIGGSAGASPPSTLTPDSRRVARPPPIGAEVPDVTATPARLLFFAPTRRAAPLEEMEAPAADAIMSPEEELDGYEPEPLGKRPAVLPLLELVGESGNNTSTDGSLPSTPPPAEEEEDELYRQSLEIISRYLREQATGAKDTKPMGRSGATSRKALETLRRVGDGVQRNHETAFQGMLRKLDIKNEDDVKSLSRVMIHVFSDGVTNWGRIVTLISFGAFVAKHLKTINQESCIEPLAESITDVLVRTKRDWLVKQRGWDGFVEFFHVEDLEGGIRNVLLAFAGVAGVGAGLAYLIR

Consider `N#CC1=C2SCN(Cc3ccco3)CN2C(=O)CC1c1ccc(Cl)cc1` (stereo not given), for which, at Large T antigen, the IC50 is > 100 µM (active).

Consider `Cc1nc(N)sc1-c1csc(Nc2ncccn2)n1`, for which the IC50 in [1] is 3.69 µM (active).

For `O=C(O)/C=C/C(=O)Nc1ccc2c(c1)C(=O)c1ccccc1C2=O`, the IC50 in [2] is > 100 µM (not active).

`Cc1ccc(Nc2cnn(C34CC5CC(CC(CC(=O)O)(C5)C3)C4)c(=O)c2Cl)c(Cl)c1`: the IC50 on Leucine aminopeptidase is 24.4 µM (active).

As to `Cc1cc(NC(=O)CN2CCN(c3ccc(O)cc3)CC2)no1`, the IC50 on Large T antigen was 9.24 µM (active). Moreover, the EC50 in assay [3] was 31.9 µM (active).

Turning to `COc1ccc(N2CCN(C3=C(Cl)C(=O)N(c4ccc(C(F)(F)F)cc4)C3=O)CC2)cc1`, in [2], the IC50 was > 12.5 µM (inconclusive).

Turning to `CC(C)Sc1nc(-c2ccccc2)cc(=O)[nH]1`, the IC50 on Leucine aminopeptidase is 28.3 µM (active).

`CCCc1n[nH]c2c1C(CCc1ccccc1)C(C#N)=C(N)O2` (stereo not given): the IC50 at Leucine aminopeptidase is 55.7 µM (active). For the same compound, in assay [4], the AC50 was 6.33 µM (active). In addition, the 50% effective concentration (EC50) at Protein RecA is 7.93 µM (active).

For the compound `COc1cccc(C(=O)Nc2ccc3c(c2)n(C)c(=O)n3C)c1`, on Large T antigen, the IC50 is > 100 µM (active).

Turning to `Cc1ccc(C(=O)C2CCN(CC(=O)Nc3ccc(N(C)C)cc3)CC2)cc1`, the IC50 on Large T antigen was 14.5 µM (active).

For the compound `COc1ccc(N2CCN(C3=C(Cl)C(=O)N(c4ccnc(Cl)c4)C3=O)CC2)cc1`, the IC50 in [2] is > 50 µM (inconclusive).

Take `NC(=O)N/N=C/c1c(Sc2nnnn2-c2ccccc2)nc2ccccn2c1=O`: at Large T antigen, the IC50 was 60.5 µM (active).

Consider `CCc1c(O)nc(SCC(=O)Nc2ccccc2)n(C(C)CC)c1=O` (stereo not given), for which the IC50 is 17.8 µM (active) at Leucine aminopeptidase, > 66 µM (inactive) in [5] and > 66 µM (inactive) in [6].

As for `O=C(O)CN1C(=O)S/C(=C\c2ccc(O)cc2)C1=O`, in assay [2], the IC50 is on record as > 100 µM (not active).

For the compound `O=C1c2c(O)cc(O)cc2O[C@H](c2ccc(O)c(O)c2)[C@H]1O` [(+)-TAXIFOLIN], the IC50 on Large T antigen is 32 µM (active).

Values taken from ChEMBL document CHEMBL1201862, “PubChem BioAssay data set” (2004).
